Reference: PubChem BioAssay (NCI)
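Five concentrations, 48 hours, 96-well plates. TGI is the concentration that stops growth completely.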 *1 amine or outer side, *2 acyl side, *3 side chain or, on linkers, in order; H or OH if unused. Where a SMILES comes first, the peptide text is derived from it. [ ]: non-standard residue; d: D form. ξ: configuration not given here. X22 = O=C(C(CC(O)CO)O[*:1])[*:2]; Ile(3ξ) = CCC(C)[C@H](N)C(=O)O; NMeV = CN[C@H](C(=O)O)C(C)C; NMeA = CN[C@@H](C)C(=O)O; βAla = NCCC(=O)O

Experiments:
Assay in all cases: NCI tumour cell line growth inhibition, 48 h
UO-31 renal = system: UO-31 renal
PC-3 prostate = system: PC-3 prostate
SF-268 CNS = system: SF-268 CNS
SNB-19 CNS = system: SNB-19 CNS
KM12 colon = system: KM12 colon
SK-OV-3 ovarian = system: SK-OV-3 ovarian
A498 renal = system: A498 renal
SF-295 CNS = system: SF-295 CNS
NCI-H522 lung = system: NCI-H522 lung
MOLT-4 leukemia = system: MOLT-4 leukemia
SN12C renal = system: SN12C renal
IGROV1 ovarian = system: IGROV1 ovarian
U251 CNS = system: U251 CNS
CCRF-CEM leukemia = system: CCRF-CEM leukemia
MDA-MB-435 = system: MDA-MB-435
M14 melanoma = system: M14 melanoma
OVCAR-8 ovarian = system: OVCAR-8 ovarian
NCI-H23 lung = system: NCI-H23 lung
RXF 393 renal = system: RXF 393 renal
DU-145 prostate = system: DU-145 prostate

Structure (SMILES)	TGI (UO-31 renal)	TGI (PC-3 prostate)	TGI (SF-268 CNS)	TGI (SNB-19 CNS)	TGI (KM12 colon)	TGI (SK-OV-3 ovarian)	TGI (A498 renal)	TGI (SF-295 CNS)	TGI (NCI-H522 lung)	TGI (MOLT-4 leukemia)	TGI (SN12C renal)	TGI (IGROV1 ovarian)	TGI (U251 CNS)	TGI (CCRF-CEM leukemia)	TGI (MDA-MB-435)	TGI (M14 melanoma)	TGI (OVCAR-8 ovarian)	TGI (NCI-H23 lung)	TGI (RXF 393 renal)	TGI (DU-145 prostate)
Cc1cccc(/C=N/NC(=S)N(C)CCc2ccccn2)n1	2.36 µM	> 100 µM	> 100 µM	> 100 µM	> 100 µM	> 100 µM	1.03 µM	> 100 µM	> 100 µM	> 100 µM	> 100 µM	24.6 µM	> 100 µM	0.0974 µM	> 100 µM	2.38 µM	> 59 µM	> 100 µM		
CC(=O)NC(CCCNC(=O)OCc1ccccc1)C(=O)O (stereo not drawn)	> 100 µM		> 100 µM	> 100 µM	> 100 µM	> 100 µM	> 100 µM	> 100 µM	> 100 µM	> 100 µM	> 100 µM	> 100 µM	> 100 µM	> 100 µM		> 100 µM	> 100 µM	> 100 µM	> 100 µM	
COc1ccc2c(c1)/C(=C\c1c(Cl)n(-c3ccccc3)c3ccccc13)C(=O)N2	18.3 µM	> 100 µM	20.3 µM	22.1 µM	14.7 µM	> 100 µM	32 µM	25.9 µM		> 100 µM	35.5 µM	27.9 µM	38.5 µM	55.8 µM		15 µM	> 100 µM	38.4 µM	11.2 µM	21.4 µM
CCC(C)[C@@H]1NC(=O)[C@@H]2CCCN2C(=O)C(CC(O)CO)OC(=O)CCNC(=O)[C@H](C)N(C)C(=O)[C@H](C(C)C)N(C)C1=O (stereo partly drawn) (cyclo([Ile(3ξ)][NMeV][NMeA][βAla][X22]P))	> 100 µM		> 100 µM	> 100 µM	> 100 µM	> 100 µM	> 100 µM	> 100 µM		> 100 µM	> 100 µM	> 100 µM	> 100 µM	> 100 µM		> 100 µM	> 100 µM	> 100 µM	> 100 µM	
Cc1nc2ccc(N)cc2[nH]c1=O	> 100 µM			> 100 µM	> 100 µM	> 100 µM	> 100 µM	> 100 µM		> 100 µM		> 100 µM	> 100 µM	> 100 µM		> 100 µM	> 100 µM			
O=c1c2n[nH]nc2nc2n1CC(c1ccccc1)S2 (stereo not drawn)	> 100 µM		> 100 µM	> 100 µM	> 100 µM	> 100 µM	> 100 µM	> 100 µM		> 100 µM	> 100 µM	> 100 µM	> 100 µM	> 100 µM	> 100 µM		> 100 µM	> 100 µM	94.9 µM	> 100 µM
